# Biological target: T1, CXCR3 (Homo sapiens, UniProt P49682)
# T1 construct: expressed in transfected cells
# T1 sequence (P49682 1-368): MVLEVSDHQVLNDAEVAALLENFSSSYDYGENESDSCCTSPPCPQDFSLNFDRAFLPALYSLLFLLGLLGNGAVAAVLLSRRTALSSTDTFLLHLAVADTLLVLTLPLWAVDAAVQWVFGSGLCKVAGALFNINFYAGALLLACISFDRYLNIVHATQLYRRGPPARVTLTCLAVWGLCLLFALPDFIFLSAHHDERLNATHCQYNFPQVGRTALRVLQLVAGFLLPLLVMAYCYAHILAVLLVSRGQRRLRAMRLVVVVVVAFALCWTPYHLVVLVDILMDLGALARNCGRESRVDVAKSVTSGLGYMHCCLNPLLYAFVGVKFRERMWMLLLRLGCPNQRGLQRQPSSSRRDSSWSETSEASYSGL
# Test: CXCR3/IP-10 radioligand binding (125I-IP-10 competition, CXCR3.L1/2 cell membranes)
# Settings: test compound 10 μmol/L, 125I-labeled IP-10 binding to CXCR3.L1/2 transfectant cell membrane
# Description: The activity of the compounds of the present invention can be assessed using a suitable assay, such as a receptor binding assay, a chemotaxis assays, an extracellular acidification assay or a calcium flux assay (see, for example, Hesselgesser et al., J. Biol. Chem. 273(25):15687-15692 (1998) and WO 98/02151). For example, as described herein, small organic molecule antagonists of CXCR3/IP-10 binding have been identified utilizing cells engineered to express recombinant human CXCR3 (CXCR3.L1/2) and which bind ^125I-IP-10 and chemotax in response to IP-10, Mig or I-TAC. Specifically, a high through-put receptor binding assay, which monitors ^125I-IP-10 binding to CXCR3.L1/2 cell membranes, was used to identify small molecule antagonists which block binding of IP-10, Mig or I-TAC to CXCR3.
# CXCR3.L1/2 cells were pelleted by centrifugation and stored at −80° C. The cells were lysed by thawing and resuspending at about 1.5×10^7 cells/ml in a hypotonic buffer (5 m mol/L HEPES (pH 7.2), 2 mmol/L EDTA, 10 μg/ml each leupeptin, aprotinin, and chymostatin, and 100 μg/ml PMSF (all from Sigma, St. Louis)). Nuclei and cellular debris was removed by centrifugation ([…], at 4° C.) for 10 min. The supematant was transferred to chilled centrifuge tubes (Nalge, Rochester, N.Y.) and the membrane fraction was recovered by centrifugation (25,000 g at 4° C.) for 45 min. The membrane pellet was resuspended in freezing buffer (10 mM HEPES (pH 7.2), 300 mmol/L Sucrose, 5 μg/ml each of leupeptin, aprotinin, and chymostatin, and 10 μg/ml PMSF). The total protein concentration was determined using a coomassie blue staining protein concentration assay kit (BioRad). The membrane preparation was aliquoted and stored at −80° C. until time of use.
# CXCR3/IP-10 binding was performed in 96-well polypropylene plates (Costar) in a final volume of 0.1 ml of HBB buffer (50 mmol/L Hepes pH 7.4, 1 mmol/L CaCl2, 5 mmol/L MgCl2, 0.02% sodium azide, 0.5% BSA (bovine serum albumin)) containing 1 to 5 μg of CXCR3.L1/2 transfectant cell membrane protein and 0.05 to 0.2 nmol/L ^125I-labeled IP-10 (NEN, Boston, Mass.). Competition binding experiments were performed by including variable concentrations of unlabeled IP-10 or test compound. Nonspecific binding was determined following the addition of a 250 nmol/L unlabelled IP-10. Samples were incubated for 60 min at room temperature, and bound and free tracer (^125I-IP10) were separated by filtration through 96-well GF/B filterplates (Packard) presoaked in 0.3% polyethyleneimine. The filters were washed in HBB further supplemented with 0.5 mol/L NaCl, dried, and the amount of bound radioactivity determined by liquid scintillation counting. The competition is presented as the percent specific binding as calculated by 100×[(S-B)/(T-B)], where S is the radioactivity bound for each sample, B is background binding, and T is total bound in the absence of competitors. Duplicates were used throughout the experiments.
Compound,% inhibition at 10 μmol/L (Table 5),inhibition at 10 µM (Table 6),also measured
"CCN(CCN1CCN(Cc2cccc3ccccc23)C1=C(C#N)C#N)Cc1ccc(CN2CCOCC2)cc1 [Compound 7, 1-[2-{N-Ethyl-N-(4-morpholinomethylbenzyl)amino}ethyl]-3-(1-naphthylmethyl)-2-imidazolidinylidenepropanedinitrile]",92%,,
"CC(=O)N(CCN1CCN(Cc2cccc3ccccc23)C1=C(C#N)C#N)Cc1cccc(CN2CCCCC2)c1 [Compound 12, 1-[2-{N-Acetyl-N-(3-piperidinomethylbenzyl)amino}ethyl]-3-(1-naphthylmethyl)-2-imidazolidinylidenepropanedinitrile]",76%,,
"N#CC(C#N)=C1N(CCN(Cc2ccccc2)Cc2cccc(CN3CCCCC3)c2)CCN1Cc1cccc2ccccc12 [Compound 18, 1-[2-{N-Benzyl-N-(3-piperidinomethylbenzyl)amino}ethyl]-3-(1-naphthylmethyl)-2-imidazolidinylidenepropanedinitrile]",67%,,
"N#CC(C#N)=C1N(CCCNCc2ccc(CN3CCCCC3)cc2)CCN1Cc1cccc2ccccc12 [Compound 20, 1-[2-{N-(4-(1-Piperidinomethyl)benzyl)amino}propyl]-3-(1-naphthylmethyl)-2-imidazolidinylidenepropanedinitrile]",,,inhibition at 10 µM (Table 5): 74%
"CCN(CCN1CCN(C(=O)c2cc(C)cc(C)c2)C1=C(C#N)C#N)Cc1ccc(CN2CCCCC2)cc1 [Compound 25, 1-[2-{N-Ethyl-N-(4-(1-piperidinomethyl)benzyl)amino}ethyl]-3-(3,5-dimethylbenzoyl)-2-imidazolidinylidenepropanedinitrile]",,99%,
"CCCNCc1ccc(CN(CC)CCN2CCN(Cc3cc(C)cc(C)c3)C2=C(C#N)C#N)cc1 [Compound 21, 1-[2-{N-Ethyl-N-(4-(1-propylaminomethyl)benzyl)amino}ethyl]-3-(3,5-dimethylbenzyl)-2-imidazolidinylidenepropanedinitrile]",,,inhibition at 10 µM (Table 5): 99%
"CCN(CCN1CCN(Cc2cccc3ccccc23)C1=C(C#N)C#N)Cc1ccc(CN2CCN(C)CC2)cc1 [Compound 8, 1-[2-{N-Ethyl-N-(4-(4-methylpiperazinyl)methylbenzyl)amino}ethyl]-3-(1-naphthylmethyl)-2-imidazolidinylidenepropanedinitrile]",86%,,
"CCN(CCN1CCN(Cc2cc(Cl)cc(Cl)c2)C1=C(C#N)C#N)Cc1ccc(CN2CCCCC2)cc1 [Compound 24, 1-[2-{N-Ethyl-N-(4-(1-piperidinomethyl)benzyl)amino}ethyl]-3-(3,5-dichlorobenzyl)-2-imidazolidinylidenepropanedinitrile]",,91%,
"CCN(CCN1CCN(Cc2cc(C)cc(C)c2)C1=C(C#N)C#N)C(=O)c1ccc(CN2CCCCC2)cc1 [Compound 26, 1-[2-{N-Ethyl-N-(4-(1-piperidinomethyl)benzoyl)amino}ethyl]-3-(3,5-dimethylbenzyl)-2-imidazolidinylidenepropanedinitrile]",,64%,
"CCCNCc1ccc(CN(CC)CCN2CCN(Cc3cccc4ccccc34)C2=C(C#N)C#N)cc1 [Compound 10, 1-[2-{N-Ethyl-N-(4-(N-propylamino)methylbenzyl)amino}ethyl]-3-(1-naphthylmethyl)-2-imidazolidinylidenepropanedinitrile]",100%,,
"CS(=O)(=O)N(CCN1CCN(Cc2cccc3ccccc23)C1=C(C#N)C#N)Cc1cccc(CN2CCCCC2)c1 [Compound 16, 1-[2-{N-Methanesulfonyl-N-(3-piperidinomethylbenzyl)amino}ethyl]-3-(1-naphthylmethyl)-2-imidazolidinylidenepropanedinitrile]",89%,,
"CN(CCN1CCN(Cc2cccc3ccccc23)C1=C(C#N)C#N)Cc1cccc(CN2CCCCC2)c1 [Compound 6, 1-[2-{N-Methyl-N-(3-piperidinomethylbenzyl)amino}ethyl]-3-(1-naphthylmethyl)-2-imidazolidinylidenepropanedinitrile]",99%,,
"CCN(CCN1CCN(Cc2cccc3ccccc23)C1=C(C#N)C#N)C(=O)c1ccc(CN2CCCCC2)cc1 [Compound 27, 1-[2-{N-Ethyl-N-(4-(1-piperidinomethyl)benzoyl)amino}ethyl]-3-(1-naphthylmethyl)-2-imidazolidinylidenepropanedinitrile]",,72%,
"N#CC(C#N)=C1N(CCN(Cc2cccc(CN3CCCCC3)c2)C(=O)c2cccs2)CCN1Cc1cccc2ccccc12 [Compound 15, 1-[2-{N-(2-Thiophenecarbonyl)-N-(3-piperidinomethylbenzyl)amino}ethyl]-3-(1-naphthylmethyl)-2-imidazolidinylidenepropanedinitrile]",71%,,
"CCN(CCN1CCN(Cc2cccc3ccccc23)C1=C(C#N)C#N)Cc1ccc(OCCN2CCCC2)cc1 [Compound 4, 1-[2-{N-Ethyl-N-{4-(2-(1-pyrrolidinyl)ethoxy)benzyl}amino}ethyl]-3-(1-naphthylmethyl)-2-imidazolidinylidenepropanedinitrile]",76%,,
"CCCNCc1ccc(CNCCN2CCN(Cc3cc(C)cc(C)c3)C2=C(C#N)C#N)cc1 [Compound 22, 1-[2-{N-(4-(1-Propylaminomethyl)benzyl)amino}ethyl]-3-(3,5-dimethylbenzyl)-2-imidazolidinylidenepropanedinitrile]",,92%,
"N#CC(C#N)=C1N(CCN(Cc2cccc(CN3CCCCC3)c2)Cc2cccc(CN3CCCCC3)c2)CCN1Cc1cccc2ccccc12 [Compound 19, 1-[2-{N,N-Bis(3-piperidinomethylbenzyl)amino}ethyl]-3-(1-naphthylmethyl)-2-imidazolidinylidenepropanedinitrile]",68%,,
"CCN(CCN1CCN(Cc2cc(Cl)cc(Cl)c2)C1=C(C#N)C#N)C(=O)c1ccc(CN2CCCCC2)cc1 [Compound 28, 1-[2-{N-Ethyl-N-(4-(1-piperidinomethyl)benzoyl)amino}ethyl]-3-(3,5-dichlorobenzyl)-2-imidazolidinylidenepropanedinitrile]",,41%,
"CCN(CCN1CCN(Cc2cccc3ccccc23)C1=C(C#N)C#N)Cc1ccc(CN2CCCCC2)cc1 [Compound 2, 1-[2-{N-Ethyl-N-(4-piperidinomethylbenzyl)amino}ethyl]-3-(1-naphthylmethyl)-2-imidazolidinylidenepropanedinitrile]",96%,,
"N#CC(C#N)=C1N(CCN(Cc2cccc(CN3CCCCC3)c2)C(=O)c2ccco2)CCN1Cc1cccc2ccccc12 [Compound 14, 1-[2-{N-Furoyl-N-(3-piperidinomethylbenzyl)amino}ethyl]-3-(1-naphthylmethyl)-2-imidazolidinylidenepropanedinitrile]",85%,,
"1-[2-{N-Ethyl-N-(4-N,N-dimethylaminomethylbenzyl)amino}ethyl]-3-(1-naphthylmethyl)-2-imidazolidinylidenepropanedinitrile [Compound 9]",94%,,
"CCCNCc1ccc(C(=O)N(CC)CCN2CCN(Cc3cc(C)cc(C)c3)C2=C(C#N)C#N)cc1 [Compound 29, 1-[2-{N-Ethyl-N-(4-(-1-propylaminomethyl)benzoyl)amino}ethyl]-3-(3,5-dimethylbenzyl)-2-imidazolidinylidenepropanedinitrile]",,51%,
